Experimental data published in the supplement of paper PMC6045584.

What was measured:
Assay in all cases: area under dose-response curve of surviving fraction (unscaled, Aref=0) (surviving fraction x log10(nM)); higher = more resistant
Conditions in all cases: exposure time: 5 days; dose range 0.5-1000 nM
[1] = compound: COc1ccc(-c2cc3c(C)nc(N)nc3n([C@H]3CC[C@H](OCCO)CC3)c2=O)cn1
In short: (§1)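 Tumour cell lines in 384-well plates were exposed for five days to eight inhibitor concentrations from 0.5 to 1000 nM. Viability was read by CellTiter-Glo luminescence, normalised to DMSO-only wells, in three screens per line. Dose-response survival curves were fitted to surviving fractions by 3-parameter logistic regression in the drc R package. Area under the curve is the unscaled activity area (Aref = 0) over log10 dose.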

BLEOMYCIN = compound: Cc1c(N)nc([C@H](CC(N)=O)NC[C@H](N)C(N)=O)nc1C(=O)N[C@H](C(=O)N[C@H](C)[C@@H](O)[C@H](C)C(=O)N[C@H](C(=O)NCCc1nc(-c2nc(C(=O)NCCC[S+](C)C)cs2)cs1)[C@@H](C)O)[C@@H](OC1OC(CO)C(O)C(O)C1OC1OC(CO)C(O)C(OC(N)=O)C1O)c1cnc[nH]1 [BLEOMYCIN]
In short: as §1

[2] = compound: CCc1cc(Nc2nccc(-c3c(-c4ccc(OC)c(C(=O)Nc5c(F)cccc5F)c4)nc4ccccn34)n2)c(OC)cc1N1CCC(N2CCN(S(C)(=O)=O)CC2)CC1
In short: as §1

LENVATINIB = compound: COc1cc2nccc(Oc3ccc(NC(=O)NC4CC4)c(Cl)c3)c2cc1C(N)=O [LENVATINIB]
In short: as §1

IMATINIB = compound: Cc1ccc(NC(=O)c2ccc(CN3CCN(C)CC3)cc2)cc1Nc1nccc(-c2cccnc2)n1 [IMATINIB]
In short: as §1

CABOZANTINIB = compound: COc1cc2nccc(Oc3ccc(NC(=O)C4(C(=O)Nc5ccc(F)cc5)CC4)cc3)c2cc1OC [CABOZANTINIB]
In short: as §1

AFIMOXIFENE = compound: CC/C(=C(\c1ccc(O)cc1)c1ccc(OCCN(C)C)cc1)c1ccccc1 [AFIMOXIFENE]
In short: as §1

BEZ-235 = compound: Cn1c(=O)n(-c2ccc(C(C)(C)C#N)cc2)c2c3cc(-c4cnc5ccccc5c4)ccc3ncc21 [BEZ-235]
In short: as §1

BMN-673 = compound: Cn1ncnc1[C@H]1c2n[nH]c(=O)c3cc(F)cc(c23)N[C@@H]1c1ccc(F)cc1 [BMN-673]
In short: as §1

NILOTINIB = compound: Cc1cn(-c2cc(NC(=O)c3ccc(C)c(Nc4nccc(-c5cccnc5)n4)c3)cc(C(F)(F)F)c2)cn1 [NILOTINIB]
In short: as §1

[3] = compound: C[C@H](CN(C)C)Oc1nc(Nc2cc3cccc(Cl)c3cn2)cnc1C#N
In short: as §1

MK-1775 = compound: C=CCn1c(=O)c2cnc(Nc3ccc(N4CCN(C)CC4)cc3)nc2n1-c1cccc(C(C)(C)O)n1 [MK-1775]
In short: as §1

[4] = compound: C[C@@H]1CN(CC(=O)Nc2ccc3c(c2)Cc2cccc(-c4cc(=O)cc(N5CCOCC5)o4)c2S3)C[C@H](C)O1
In short: as §1

VORINOSTAT = compound: O=C(CCCCCCC(=O)Nc1ccccc1)NO [VORINOSTAT]
In short: as §1

Row | Test System | area under dose-response curve [1] | area under dose-response curve (BLEOMYCIN) | area under dose-response curve [2] | area under dose-response curve (LENVATINIB) | area under dose-response curve (IMATINIB) | area under dose-response curve (CABOZANTINIB) | area under dose-response curve (AFIMOXIFENE) | area under dose-response curve (BEZ-235) | area under dose-response curve (BMN-673) | area under dose-response curve (NILOTINIB) | area under dose-response curve [3] | area under dose-response curve (MK-1775) | area under dose-response curve [4] | area under dose-response curve (VORINOSTAT)
1 | CHLA90 AUTONOMIC GANGLIA | 2.37 | 2.89 | 3.16 | 3.23 | 3.45 | 2.95 | 3.42 | 2.25 | 2.97 | 3.5 | 2.86 | 2.46 | 3.37 | 3.28
2 | HSSYII SYNOVIAL | 1.93 | 2.09 | 3.08 | 2.64 | 3.24 | 2.98 | 3.31 | 2.12 | 1.15 | 3.09 | 2.56 | 2.05 | 3 | 2.82
3 | JIMT1 BREAST | 2.47 | 2.8 | 3.34 | 3.41 | 3.41 | 3.5 | 3.34 | 2.38 | 2.39 | 3.15 | 2.3 | 2.04 | 3.11 | 3.11
4 | MHM BONE | 2.79 | 3.06 | 3.29 | 3.4 | 3.51 | 3.23 | 3.46 | 2.85 | 3.2 | 3.6 | 3.43 | 3.12 | 3.5 | 3.28
5 | VP229 BREAST | 2.08 | 2.61 | 3.66 | 4.16 | 4.06 | 3.43 | 3.71 | 2.64 | 3.22 | 3.75 | 3.45 | 2.75 | 3.29 | 3.08
6 | CAL120 BREAST | 2.16 | 2.66 | 3.17 | 3.14 | 3.08 | 3.04 | 3.29 | 2.06 | 2.16 | 3.5 | 3.04 | 2.62 | 3.33 | 2.69
7 | OSHN BONE | 2.99 | 2.72 | 3.42 | 3.63 | 3.71 | 3.22 | 3.65 | 3.19 | 2.4 | 3.28 | 3.08 | 2.85 | 3.42 | 3.47
8 | CAL51 BREAST | 2.28 | 2.39 | 3.35 | 3.18 | 3.53 | 3.28 | 3.36 | 1.99 | 1.22 | 3.22 | 2.73 | 2.31 | 3.27 | 3.06
9 | HOS BONE | 2.46 | 3.03 | 3.27 | 3.38 | 3.43 | 3.24 | 3.46 | 2.52 | 3 | 3.43 | 3.05 | 2.77 | 3.29 | 3.28
10 | T47D BREAST | 2.22 | 2.92 | 3.46 | 3.63 | 3.66 | 3.4 | 3.17 | 2.71 | 2.5 | 3.49 | 3.29 | 2.97 | 3.37 | 3.15
11 | HCT15 LARGE INTESTINE | 2.38 | 2.34 | 3.39 | 3.67 | 3.74 | 3.2 | 3.52 | 2.4 | 2.22 | 3.52 | 3.27 | 3.01 | 3.44 | 3.26
12 | U2OS BONE | 2.54 | 3.02 | 3.38 | 3.24 | 3.59 | 3.26 | 3.56 | 2.68 | 2.8 | 3.59 | 2.9 | 2.46 | 3.54 | 3.23
13 | OS25HAL BONE | 2.12 | 2.85 | 3.27 | 3.19 | 3.47 | 3.05 | 3.51 | 2.66 | 2.71 | 3.17 | 3.06 | 2.36 | 3.38 | 3.21
14 | CASKI CERVIX | 1.97 | 1.94 | 3.15 | 3.28 | 3.28 | 3.03 | 3.25 | 1.99 | 2.72 | 2.97 | 2.76 | 2 | 2.98 | 2.94
15 | HT1080 SOFT TISSUE | 2.54 | 2.57 | 3.37 | 3.31 | 3.5 | 3.29 | 3.48 | 2.35 | 1.71 | 3.28 | 3.08 | 2.2 | 3.27 | 3.01
16 | MDAMB231 BREAST | 2.27 | 2.82 | 3.23 | 3.24 | 3.24 | 3.22 | 3.31 | 2.28 | 2.49 | 2.86 | 3.05 | 2.54 | 3.03 | 3.11
